Data as given in patent US20240325370A1, “THERAPEUTIC REGIMENS OF A DEGRADER OF BRD9” (FOGHORN THERAPEUTICS INC., priority 2021, published 2024).
Entries after “also recorded” stand apart in the source; their conditions may differ.

Assays:
[1] = tested on: synovial sarcoma cell lines (SYO1, Yamato, HS-SY-II, and ASKA); assay: Growth of synovial sarcoma cell lines (IncuCyte confluency, crystal violet, colonies); assay type: cell-based, human; settings: 1 μM or indicated concentrations
Description: (§1) Cells were treated with DMSO or the BRD9 degrader, Compound 1, at indicated concentrations, and proliferation was monitored from day 7 to day 14 by measuring confluency over time using an IncuCyte live cell analysis system (FIG. 4). Growth medium and compounds were refreshed every 3-4 days.
(§2) Cells were seeded into 12-well plates and treated with DMSO, 1 μM BRD9 inhibitor, Compound 2 (also known as BI-7273, see Martin et al, J Med Chem. 59 (10): 4462-4475 (2016); see structure of compound 2 below), or 1 μM BRD9 degrader, Compound 1.
(§3) The number of cells was optimized for each cell line. Growth medium and compounds were refreshed every 3-5 days. SYO1, Yamato, A549, 293T and HS-SY-II cells were fixed and stained at day 11. ASKA cells were fixed and stained at day 23. Staining was done by incubation with crystal violet solution (0.5 g Crystal Violet, 27 ml 37% Formaldehyde, 100 mL 10×PBS, 10 mL Methanol, 863 dH20 to 1 L) for 30 min followed by 3× washes with water and drying the plates for at least 24 h at room temperature. Subsequently plates were scanned on an Odyssey CLx Imaging system (FIG. 5).
(§4) Cells were seeded into 96-well ultra-low cluster plate (Costar, #7007) in 200 μL complete media and treated at day 2 with DMSO, Staurosporin, or BRD9 degrader, Compound 1, at indicated doses (FIG. 2C). Media and compounds were changed every 5 d and cell colonies were imaged at day 14.

[2] = tested on: non-synovial control cancer cell lines (293T, A549, G401); assay: Growth of non-synovial control cancer cell lines; assay type: cell-based
Description: as §1, §2, §3, §4

[3] = tested on: synovial sarcoma cell lines (SYO1, HS-SY-II, and ASKA); assay: Crystal violet growth assay, synovial sarcoma cell lines, day 14; assay type: cell-based, human; settings: treated daily
Description: (§5) Procedure: Cells were seeded into 6-well or 12-well plates and were treated daily with a BRD9 degrader (Compound 1), a bromo-domain BRD9 binder (Compound 2), E3 ligase binder (lenalidomide), DMSO, or staurosporin (positive control for cell killing), at indicated concentrations. The number of cells was optimized for each cell line. Growth media was refreshed every 5 days. By day 14, medium was removed, cells were washed with PBS, and stained using 500 μL of 0.005% (w/v) crystal violet solution in 25% (v/v) methanol for at least 1 hour at room temperature. Subsequently plates were scanned on an Odyssey CLx Imaging system.

[4] = tested on: non-synovial control cancer cell lines (RD, HCT116, and Calu6); assay: Crystal violet growth assay, non-synovial control cancer cell lines, day 14; assay type: cell-based; settings: treated daily
Description: as §5

[5] = tested on: SYO1 cells; assay: Cell cycle analysis (Click-iT Plus EdU Flow Cytometry Assay); assay type: cell-based, human; settings: 200 nM or 1 μM for 8 or 13 days; compared to DMSO and lenalidomide
Description: (§6) Procedure: SYO1 cells were treated for 8 or 13 days with DMSO, a BRD9 degrader (Compound 1) at 200 nM or 1 μM, or an E3 ligase binder (lenalidomide) at 200 nM. Compounds were refreshed every 5 days. Cell cycle analysis was performed using the Click-iTT Plus EdU Flow Cytometry Assay (Invitrogen). The apoptosis assay was performed using the Annexin V-FITC Apoptosis Detection Kit (Sigma A9210). Assays were performed according to the manufacturer's protocol.

[6] = tested on: SYO1 cells; assay: Apoptosis assay (Annexin V-FITC Apoptosis Detection Kit); assay type: cell-based, human; settings: 8 days; compared to DMSO controls
Description: as §6

[7] = tested on: ASKA synovial sarcoma xenografts; assay: ASKA synovial sarcoma xenograft efficacy; assay type: in vivo; settings: for Tumor Growth (%) on Day 21 / Tumor Size (mm^3) on Day 21: Mean ± SEM; for T/C (%) / TGI (%): Day 21
Description: A study was conducted to examine anti-tumor efficacy of compound S-D1 with BIW IV dosing of the racemate, compound D1, for 3 weeks utilizing a second xenograft model of human synovial sarcoma, ASKA. Vehicle (0.5% HPMC, 0.1% Tween 80 in water, pH 1.3 to 1.5), administered orally, was used as the general comparator for all test article responses (i.e., tumor growth and body weight changes). Pazopanib and ifosfamide, two agents currently used in clinic to treat synovial sarcoma patients were compared to compound D1 treatment alone. Pazopanib was administered orally at 40 mg/kg QD and ifosfamide was given IV at 80 mg/kg QD for the first 3 days (Days 0, 1, and 2) in the 3-week treatment period, mimicking the equivalent treatment regimens for both drugs in human patients.

[8] = 80 mg/kg QD IV Day 0 to Day 2, ASKA xenograft
[9] = 40 mg/kg QD oral 3 weeks, ASKA xenograft

Compound: COc1cc(-c2cn(C)c(=O)c3cnccc23)cc(OC)c1CN(C)CC(=O)NCCOCCOCCNc1cccc2c1C(=O)N(C1CCC(=O)NC1=O)C2=O (centres unmarked) [Compound 1]
- inhibition of the growth of the cells [1]: inhibition of the growth of the cells
- inhibition of the growth of the cells [2]: does not result in inhibition of the growth
- inhibition of the growth of the cells [3]: inhibition of the growth of the cells; also recorded: most significant growth inhibition
- inhibition of the growth of the cells [4]: did not result in inhibition of the growth
- numbers of cells in the S-phase of the cell cycle [5]: reduced numbers of cells in the S-phase
- numbers of early- and late-apoptotic cells [6]: increased numbers of early- and late-apoptotic cells

Compound: COc1cc(-c2cn(C)c(=O)c3cnccc23)cc(OC)c1CN(C)C [Compound 2]
- inhibition of the growth of the cells [1]: inhibition of the growth of the cells
- inhibition of the growth of the cells [2]: does not result in inhibition of the growth
- inhibition of the growth of the cells [3]: inhibition of the growth of the cells
- inhibition of the growth of the cells [4]: did not result in inhibition of the growth

Compound: O=P1(NCCCl)OCCCN1CCCl (centres unmarked) [Ifosfamide, reference compound]
- Tumor Growth (%) on Day 21 [7, 8]: 820 ± 56%
- Tumor Size (mm^3) on Day 21 [7, 8]: 1164 ± 126 mm^3
- T/C (%) ([7]; 80 mg/kg QD IV Day 0 to Day 2): 67.2%
- TGI (%) ([7]; 80 mg/kg QD IV Day 0 to Day 2): 32.8%
- tolerability (body weight) ([7]; ASKA xenograft, 3-week treatment period): transient body weight loss occurred but recovered within a few days
- tumor growth inhibition achieved ([7]; pazopanib 40 mg/kg QD oral, ifosfamide 80 mg/kg QD IV Days 0, 1, 2, ASKA xenograft): partial TGI

Compound: Cc1ccc(Nc2nccc(N(C)c3ccc4c(C)n(C)nc4c3)n2)cc1S(N)(=O)=O [Pazopanib, reference compound]
- Tumor Growth (%) on Day 21 [7, 9]: 480 ± 33%
- Tumor Size (mm^3) on Day 21 [7, 9]: 537 ± 56 mm^3
- T/C (%) ([7]; 40 mg/kg QD oral 3 weeks): 39.4%
- TGI (%) ([7]; 40 mg/kg QD oral 3 weeks): 60.6%
